Results as given in patent publication US12564595B2, “Prophylactic and therapeutic pharmaceutical agent for HIV infectious diseases characterized by comprising combination of integrase inhibitor and anti-HIV agent” (Shionogi & Co., Ltd., priority 2019, dated 2026).
Read-outs that look alike come from different tables or passages of the source.

Key:
HIV [1] = test: microbe, parasite or virus in culture; type: cell-based; conditions: Human immunodeficiency virus 1, MT4, 96 h, read-out: EC50 (50% HIV inhibition concentration), MT-4 cells, HIV, cultured four days, MTT
Protocol: A serial dilution series of test samples was prepared in 96-well microplates (50 μL/well).
100 μL/well in each case were dispensed onto plates having test samples of 2.5×10^5/mL MT-4 cell suspension, and HIV virus solution was then dispensed thereto in the amount of 50 μL/well. Mixing was performed using a plate mixer and culturing was performed for four days in a CO2 incubator. MTT (3-(4,5-dimethylthiazol-2-yl)-2,5-diphenyltetrazolium bromide) liquid was dispensed into each well in the amount of 30 μL in each case. The reaction was conducted for 1 h in a CO2 incubator. 150 μL of supernatant were removed from each well, taking care not to aspirate any cells. 150 μL of cell solution were added, and thorough mixing was performed with a plate mixer until all the cells had been dissolved. The optical absorbance of the mixed plates was measured at two wavelengths: 560 nm/690 nm, with a microplate reader.

[2] = test system: HIV mutant strain 1 (E138K/G140S/Q148H/N155H); test: Test Example 2: resistance evaluation test (HeLa-CD4 reporter), mutant strain 1; type: cell-based; conditions: FC=EC50 of mutant strain/EC50 of wild strain; HeLa-CD4 cells
Protocol: (§1) A serial dilution series of test samples in 96-well microplates was prepared (50 […]).
(§2) 2.5×10^4/mL of HeLa-CD4 cell suspension was dispensed into each of the microplates containing test sample, in the amount of 100 μL/well, and HIV virus liquid (wild strain and mutant strain) was then dispensed in an amount of 50 μL/well. Mixing was performed using a plate mixer and culturing was performed for three days in a CO2 incubator. After removing the cultured supernatant of each well by suction, 100 μL of the cell solution buffer in the reporter measurement kit was dispensed thereto, and freezing was conducted in a refrigerator (−80° C.). The plates frozen in the refrigerator were defrosted at room temperature, then mixed using a plate mixer and centrifuged for 5 min at 1,200 rpm. The supernatant of each well was divided to 96-well microplates (BLACK) in the amount of 20 μL in each case. The chemiluminescence reagent in the reporter assay kit was dispensed in the amount of 100 μL in each case, and, after reacting for about 1 h at room temperature, the amount of luminescence was measured using a MicroBeta TRILUX.
(§3) The degree of resistance (fold change (FC)) of each mutant strain was also calculated using the following formula. FC=EC50 of mutant strain/EC50 of wild strain (Results)
(§4) The results of the example compounds relating to formula (I) of (A) are shown below. The […] in respect of mutant strain 1 (E138K/G140S/Q148H/N155H) and the FC in respect of mutant strain 2 (E92Q/E138T/G140S/Q148H) are shown in the Table.

[3] = test system: HIV mutant strain 2 (E92Q/E138T/G140S/Q148H); test: Test Example 2: resistance evaluation test (HeLa-CD4 reporter), mutant strain 2; type: cell-based; conditions: FC=EC50 of mutant strain/EC50 of wild strain; HeLa-CD4 cells
Protocol: as §1, §2, §3, §4

[4] = Test Example 8: metabolic stability test; type: in vitro ADME, human; conditions: pooled human liver microsomes, 30 min at 37° C., NADPH, compound concentration 0.5 μmol/L
Protocol: The extent of metabolization of the compound according to the present invention in the liver was evaluated by reacting commercially available pooled human liver microsomes with the compound according to the present invention for a fixed time and calculating the remaining percentage by comparing the reaction sample with an unreacted sample.
The reaction (oxidative reaction) was conducted for 0 min or 30 min at 37° C. in the presence of 1 mmol/L of NADPH, in a 0.2 mL buffer solution containing 0.5 mg of human liver microsome protein/mL (50 mmol/L Tris-HCl pH 7.4, 150 mmol/L potassium chloride, 10 mmol/L magnesium chloride). After the reaction, 50 μL of reaction liquid were added to 100 μL of methanol/acetonitrile=1/1 (v/v) solution, mixed, and centrifuged for 15 minutes at 3000 rpm. The compound according to the present invention in the centrifuged supernatant was quantified using LC/MS/MS or solid phase extraction (SPE)/MS; the residual amount of the compound according to the present invention after the reaction was calculated, taking the amount of the compound at the 0 min reaction point as 100%.

HIV [5] = test: Test Example 3: test for confirmation of combined use effect; type: cell-based; set-up: key to D value (dosewise additivity value): <-0.1 synergy, -0.1 to 0.1 additive, >0.1 antagonism
Text: The two compounds in respect of which the effect of combined use was desired to be examined were mixed in various ratios, and the anti-HIV activity (50% HIV inhibiting concentration) for each combination was found by the method of test example 1. […] A brief description of the method of calculating the D value is given below.
The D value that is found by evaluating the anti-HIV activity of respective combinations of M concentrations of compound X1 and N concentrations of compound X2 is calculated by the following mathematical expression 1.
The effect of combined use was evaluated in terms of the D value in accordance with the following criteria • −0.5 to −0.2: strong synergetic effect • −0.2 to −0.1: weak synergetic effect • […]: additive synergetic effect • 0.1 to 0.2: weak antagonism • 0.2 to 0.5: strong antagonism

[6] = compounds of formula (I) of (A)
[7] = compounds of formula (I′) of (B)
[8] = combination with compound (B) Compound C (CAI)
[9] = combination with compound (B) Darunavin (PI)
[10] = combination with compound (B) Darunavir (PI)
[11] = combination with compound (B) GS-6207 (CAI)
[12] = combination with compound (B) GSK2838232 (maturation inhibitor)
[13] = combination with compound (B) Lilpiperine (polymerase inhibitor)
[14] = combination with compound (B) Ramipzin (3TC) (polymerase inhibitor)
[15] = combination with compound (B) Rilpivirine (polymerase inhibitor)
[16] = combination with compound (B) I′-189 (INLAI)
[17] = combination with compound (B) VM-1500 (polymerase inhibitor)

SMILES | EC50 (HIV [1]; [6]) | FC in respect of mutant strain 1 (E138K/G140S/Q148H/N155H) [2] | FC in respect of mutant strain 2 (E92Q/E138T/G140S/Q148H) [3] | Remaining percentage [4] | EC50 (HIV [1]; [7]) | further results
CCN1C(=O)c2c(O)c(=O)c(-c3nnc(Cc4c(F)cc(F)cc4F)s3)cn2N2C[C@@H](C)CC[C@@H]12 [II-156] | 1.2 nM | 3.5 | 4.6 | 91.3% |  | 
CN1C(=O)c2c(O)c(=O)c(-c3nnc(Cc4ccc(F)cc4F)s3)cn2N2CCOC[C@@H]12 [II-102] | 1.3 nM | 25 | 22 | 106% |  | 
C[C@@H]1CCN2[C@@H](C1)N(C)C(=O)c1c(O)c(=O)c(-c3nnc(Cc4c(F)cc(F)cc4F)s3)cn12 [II-144] | 0.69 nM | 6.1 | 6.1 | 94.2% |  | 
CCN1C(=O)c2c(O)c(=O)c(C(=O)NCc3ccc(C#N)cc3)cn2N2CCCC[C@@H]12 [II-090] | 18 nM |  |  |  |  | 
CCN1C(=O)c2c(O)c(=O)c(-c3nnc(Cc4c(F)cc(F)cc4F)s3)cn2N2CC[C@@H](C)C[C@@H]12 [II-143] | 1.7 nM | 3 | 3.6 | 82.5% |  | 
CCN1C(=O)c2c(O)c(=O)c(-c3nnc(Cc4c(F)cc(F)cc4F)s3)cn2N2C[C@@H]3CC[C@@H](O3)[C@@H]12 [II-126] | 0.6 nM | 17 | 20 | 97.2% |  | 
Cc1ccc(-c2c([C@H](OC(C)(C)C)C(=O)O)c(C)c3c4c2cc(C)n4CCN3CCN(C)C)cc1 [I′-027] |  |  |  |  | 9.9 nM | 
CCN1C(=O)c2c(O)c(=O)c(C(=O)NCc3cccc(C(F)(F)F)c3F)cn2N2CCCC[C@@H]12 [II-074] | 18 nM |  |  |  |  | 
Cc1ccc(-c2c([C@H](OC(C)(C)C)C(=O)O)c(C)c3c4c2cc(C)n4CCN3c2ncc(OCCN(C)C)cn2)cc1 [I′-220] |  |  |  |  | 5.9 nM | 
COCC[C@H]1Cn2c(C)cc3c(-c4ccc(Cl)cc4)c([C@H](OC(C)(C)C)C(=O)O)c(C)c(c32)N1S(C)(=O)=O [I′-043] |  |  |  |  | 1.4 nM | 
CC(C)N1C(=O)c2c(O)c(=O)c(C(=O)NCc3ccc(F)cc3F)cn2N2CCCC[C@@H]12 [Compound I-004] | 2.5 nM |  |  |  |  | 
CC(C)N1C(=O)c2c(O)c(=O)c(C(=O)NCc3c(F)cc(F)cc3F)cn2N2CCOC[C@@H]12 [II-022] | 0.39 nM |  |  |  |  | 
CN1C(=O)c2c(O)c(=O)c(C(=O)NCc3cccc(Cl)c3F)cn2N2CCCC[C@@H]12 [II-092] |  | 6.8 | 7.7 | 101% |  | D value (dosewise additivity value) (HIV [5]; [8]): 0.056; effect of combined use (HIV [5]; [8]): Additive (−0.1 to −0.1: additive synergetic effect); D value (dosewise additivity value) (HIV [5]; [9]): −0.117; effect of combined use (HIV [5]; [10]): Weak synergy (−0.2 to −0.1: weak synergetic effect); D value (dosewise additivity value) (HIV [5]; [11]): −0.093; effect of combined use (HIV [5]; [11]): Additive (−0.1 to −0.1: additive synergetic effect); D value (dosewise additivity value) (HIV [5]; [12]): 0.000; effect of combined use (HIV [5]; [12]): Additive (−0.1 to −0.1: additive synergetic effect); effect of combined use (HIV [5]; [13]): Additive (−0.1 to −0.1: additive synergetic effect); D value (dosewise additivity value) (HIV [5]; [14]): −0.118; effect of combined use (HIV [5]; [14]): Weak synergy (−0.2 to −0.1: weak synergetic effect); D value (dosewise additivity value) (HIV [5]; [15]): −0.022
Cc1ccc(-c2c([C@H](OC(C)(C)C)C(=O)O)c(C)c3c4c2cc(C)n4CCN3C)cc1 [I′-001] |  |  |  |  | 0.69 nM | 
Cc1ccc(-c2c([C@H](OC(C)(C)C)C(=O)O)c(C)c3c4c2cc(C)n4CCN3c2ncc(CN(C)C)cn2)cc1 [I′-304] |  |  |  |  | 4.1 nM | 
C[C@H]1C[C@H]2N(C)C(=O)c3c(O)c(=O)c(C(=O)NCc4cccc(Cl)c4F)cn3N2C1 [II-036] |  | 15 | 7.9 | 97.4% |  | D value (dosewise additivity value) (HIV [5]; [8]): 0.032; effect of combined use (HIV [5]; [8]): Additive (−0.1 to −0.1: additive synergetic effect); D value (dosewise additivity value) (HIV [5]; [9]): −0.115; effect of combined use (HIV [5]; [10]): Weak synergy (−0.2 to −0.1: weak synergetic effect); D value (dosewise additivity value) (HIV [5]; [11]): −0.117; effect of combined use (HIV [5]; [11]): Weak synergy (−0.2 to −0.1: weak synergetic effect); D value (dosewise additivity value) (HIV [5]; [12]): 0.021; effect of combined use (HIV [5]; [12]): Additive (−0.1 to −0.1: additive synergetic effect); effect of combined use (HIV [5]; [13]): Additive (−0.1 to −0.1: additive synergetic effect); D value (dosewise additivity value) (HIV [5]; [14]): −0.184; effect of combined use (HIV [5]; [14]): Weak synergy (−0.2 to −0.1: weak synergetic effect); D value (dosewise additivity value) (HIV [5]; [15]): −0.044
COc1cnc(N2CCn3c(C)cc4c(-c5ccc(C)cc5)c([C@H](OC(C)(C)C)C(=O)O)c(C)c2c43)nc1 [I′-189] |  |  |  |  | 1.6 nM | 
CCN1C(=O)c2c(O)c(=O)c(C(=O)NCc3ccc(F)cc3F)cn2N2[C@@H](C)c3cc(F)ccc3[C@@H]12 [II-140] | 0.67 nM |  |  |  |  | 
Cc1ccc(-c2c([C@H](OC(C)(C)C)C(=O)O)c(C)c3c4c2cc(C)n4CCN3c2nc3c(s2)CCN(C)C3)cc1 [I′-292] |  |  |  |  | 2.5 nM | 
CCN1C(=O)c2c(O)c(=O)c(C(=O)NCc3c(F)cc(F)cc3F)cn2N2C[C@@H](C)CC[C@@H]12 [II-096] |  | 6.4 | 8.9 | 90.7% |  | D value (dosewise additivity value) (HIV [5]; [8]): 0.065; effect of combined use (HIV [5]; [8]): Additive (−0.1 to −0.1: additive synergetic effect); D value (dosewise additivity value) (HIV [5]; [9]): −0.130; effect of combined use (HIV [5]; [10]): Weak synergy (−0.2 to −0.1: weak synergetic effect); D value (dosewise additivity value) (HIV [5]; [11]): −0.125; effect of combined use (HIV [5]; [11]): Weak synergy (−0.2 to −0.1: weak synergetic effect); D value (dosewise additivity value) (HIV [5]; [12]): 0.001; effect of combined use (HIV [5]; [12]): Additive (−0.1 to −0.1: additive synergetic effect); D value (dosewise additivity value) (HIV [5]; [16]): 0.070; effect of combined use (HIV [5]; [16]): Additive (−0.1 to −0.1: additive synergetic effect); effect of combined use (HIV [5]; [13]): Additive (−0.1 to −0.1: additive synergetic effect); D value (dosewise additivity value) (HIV [5]; [14]): −0.177; effect of combined use (HIV [5]; [14]): Weak synergy (−0.2 to −0.1: weak synergetic effect); D value (dosewise additivity value) (HIV [5]; [15]): −0.035; D value (dosewise additivity value) (HIV [5]; [17]): −0.115; effect of combined use (HIV [5]; [17]): Weak synergy (−0.2 to −0.1: weak synergetic effect)
